Test results published in patent publication US6159696A, “Isolated human BMP-4 promoter region” (priority 1996, dated 2000).
“Also recorded” adds a separate entry of the source.

Tests used:
BMP-4 promoter 1 region = test: ER-mediated luciferase reporter gene modulation, BMP-4 promoter 1 region constructs, transient transfection of U-2 OS cells with pKCRE-ER; type: cell-based, human; details: for ER-mediated expression of the reporter gene under control of BMP-4 promoter region (in words): BMP-4 promoter region reporter plus ER expression vector; for Fold Induction: ratio of luciferase activity in presence and absence of compound, U-2 OS, human ER
Description: (§1) Additional fragments of promoter region 1 were generated by progressive exonuclease III digestion (Erase-a-base Kit, Promega), blunt-ended with klenow and deoxynucleotide-triphosphates and subcloned into an endoR SmaI-digested pSLA4 luciferase reporter plasmid.
(§2) The human estrogen receptor (ER)-containing mammalian expression construct pKCRE-ER was constructed in the following way. […] The ER-cDNA was isolated as an endoR SphI/EcoRI fragment comprising nucleotide positions -30 to +1800.
ER-mediated reporter gene modulation by different estrogen analogs of individual promoter region constructs were assayed by transient transfection of osteosarcoma cells (U-2 OS). One day prior to transfection, U-2 OS cells were seeded at a density of 10^5 cells per well (6-well tissue culture plates; Nunc). In this case, the cells were seeded in fenolred-free medium containing 10% (v/v) charcoal-stripped Fetal Calf Serum (csFCS) instead of FCS. DNA was introduced using the lipofection method as described by the supplier (Gibco, BRL). Hereto, the DNA (1 μg receptor construct, 1 μg reporter construct and 250 ng transfection control construct in 250 μL Optimem, Gibco BRL; in different experiments the total amount of transfected DNA was kept constant using pKCRE) was mixed with an equal volume of Lipofectin Reagent (Gibco, BRL) and allowed to stand for 30 min at room temperature. To this was added 500 μL of Optimem (RT) and this mixture was added to the cells, after the latter have been washed with serum-free medium. After a 5 h incubation period at 37° C., the cells were washed with fenolred-free and serum-free medium and incubated overnight in fenolred-free and 10% csFCS medium containing the testcompounds at the concentrations indicated. Prior to the preparation of lysates, cells were washed with PBS (7.6 mM Na2 HPO4 /NAH2 PO4 pH 7.4 and 0.12 M NaCl). Cell extracts were prepared by the addition of 200 μL lysis buffer (0.1 M sodium phosphate buffer pH 7.8 and 0.2% Triton X-100) to the cells and allowed to stand for 5 min at room temperature. Luciferase measurements of cell extracts was performed as described by the supplier (Promega; Luciferase assay system E1501). Hereto, 30 μL of cell extract was added to a […] Optiplate (Packard) and combined with 50 μL of luciferase substrate. The plates were sealed with Topseal film (Packard) and measurements were performed in a Topcount (Packard).

[1] = system: estrogen response element (ERE)-containing promoter; test: ER-mediated luciferase reporter gene modulation, estrogen response element promoter construct pERE3 TATA-Luc, transient transfection of U-2 OS cells with pKCRE-ER; type: cell-based, human; details: for expression of the reporter gene under the control of a promoter comprising an estrogen responsive element (ERE) (in words): ERE promoter reporter plus ER expression vector
Description: The estrogen response element (ERE)-containing promoter construct was based on pBL-CAT6 (Boshart et al., Gene 110, 129, 1992). It was modified into a luciferase (Luc) reporter construct by exchanging the endoR XhoI/StyI fragment of pBL CAT6 (containing the chloramphenicol acetyl transferase coding information) by the endoR XhoI/StyI fragment of pXP2 (containing the luciferase coding information; Nordeen et al., Biotechniques 6, 454, 1988). A minimal promoter/TATA-element with the sequence 5'-GGGTATATAAT-3'(SEQ ID NO:8) was inserted in between the endoR XbaI and endoR BamHI sites resulting in plasmid pTATA-Luc. A triple estrogen response element (ERE) with the core sequence
was inserted in the endoR HindIII site resulting in plasmid pERE3 TATA-Luc.
The human estrogen receptor (ER)-containing mammalian expression construct pKCRE-ER was constructed in the following way. The human ER-cDNA was obtained from G. Greene (Ben May Laboratory for Cancer Research, University of Chicago); it encodes a glycine instead of valine at amino acid position 400 (G. Greene et al., Science 231, 1150, 1986 and Tora et al., EMBO. J, 8, 1981, 1989). The ER-cDNA was isolated as an endoR SphI/EcoRI fragment comprising nucleotide positions -30 to +1800. This fragment was blunted by T4-DNA polymerase and inserted in the blunted endoR BamHI site of the mammalian expression construct pKCR (O'Hara et al., Proc.Natl.Acad.Sci.USA, 78, 1527, 1981). The latter plasmid was modified in that the last exon region of the rabbit β-globin gene was removed by digestion with endoR EcoRI/BgIII, filling in, and religation (nucleotide position 1122-1196; Van Ooyen et al., Science 206, 337, 1979) and the replacement of pBR322 for pBR327 sequences.
(§3) ER-mediated reporter gene modulation by different estrogen analogs of individual promoter region constructs were assayed by transient transfection of osteosarcoma cells (U-2 OS). One day prior to transfection, U-2 OS cells were seeded at a density of 10^5 cells per well (6-well tissue culture plates; Nunc). In this case, the cells were seeded in fenolred-free medium containing 10% (v/v) charcoal-stripped Fetal Calf Serum (csFCS) instead of FCS. DNA was introduced using the lipofection method as described by the supplier (Gibco, BRL). Hereto, the DNA (1 μg receptor construct, 1 μg reporter construct and 250 ng transfection control construct in 250 μL Optimem, Gibco BRL; in different experiments the total amount of transfected DNA was kept constant using pKCRE) was mixed with an equal volume of Lipofectin Reagent (Gibco, BRL) and allowed to stand for 30 min at room temperature. To this was added 500 μL of Optimem (RT) and this mixture was added to the cells, after the latter have been washed with serum-free medium. […]

[2] = system: pSLA4 luciferase reporter plasmid; test: ER-mediated luciferase reporter gene modulation, pSLA4 reporter without BMP-4 promoter region, transient transfection of U-2 OS cells with pKCRE-ER; type: cell-based, human
Description: as §1, §2
as §3, with “temperature.” for “temperature. To this was added 500 μL of Optimem (RT) and this mixture was added to the cells, after the latter have been washed with serum-free medium.”

BMP-4 promoter 2 region = test: ER-mediated luciferase reporter gene modulation, BMP-4 promoter 2 region constructs, transient transfection of U-2 OS cells with pKCRE-ER; type: cell-based; details: human ER (FIG. 8, FIG. 9)
Description: as §1, §2
as §3, with “temperature.” for “temperature. To this was added 500 μL of Optimem (RT) and this mixture was added to the cells, after the latter have been washed with serum-free medium.”

[3] = promoter region not further specified

CC/C(=C(\c1ccc(O)cc1)c1ccc(OCCN(C)C)cc1)c1ccccc1 [4OH-tamoxifen]
ER-mediated expression of the reporter gene under control of BMP-4 promoter region (in words) (BMP-4 promoter 1 region; [3]): can also be achieved

CC/C(=C(\c1ccccc1)c1ccc(OCCN(C)C)cc1)c1ccccc1 [tamoxifen]
ER-mediated expression of the reporter gene under control of BMP-4 promoter region (in words) (BMP-4 promoter 1 region; [3]): could be induced and/or stimulated; also recorded: induced expression of the reporter gene
expression of the reporter gene under the control of a promoter comprising an estrogen responsive element (ERE) (in words) [1]: neither of these compounds were able to induce expression of the reporter gene

CCCCN(C)C(=O)CCCCCCCCCC[C@@H]1Cc2cc(O)ccc2[C@H]2CC[C@]3(C)[C@@H](O)CC[C@H]3[C@H]12 [ICI 164384]
ER-mediated expression of the reporter gene under control of BMP-4 promoter region (in words) (BMP-4 promoter 1 region; [3]): considerable expression of the reporter gene; also recorded: can also be achieved

C[C@]12CC[C@@H]3c4ccc(O)cc4CC[C@H]3[C@@H]1CC[C@@H]2O [Estradiol, 17β-estradiol]
ER-mediated expression of the reporter gene under control of BMP-4 promoter region (in words) (BMP-4 promoter 1 region; promoter region not further specified in the sentence, listed as 17-β-estradiol): did not show a significant transcriptional effect
ER-mediated expression of the reporter gene under control of BMP-4 promoter region (in words) (BMP-4 promoter 1 region; promoter region not further specified in the sentence, listed as 17β-estradiol): did not induce the expression of the reporter gene
Fold Induction ([1]; u-2 os cells): 26 ± 7 fold
Fold Induction ([2]; u-2 os cells): 0.7 ± 0.1 fold

O=C(c1ccc(OCCN2CCCCC2)cc1)c1c(-c2ccc(O)cc2)sc2cc(O)ccc12 [Raloxifene, raloxifene]
ER-mediated expression of the reporter gene under control of BMP-4 promoter region (in words) (BMP-4 promoter 1 region; [3]): could be induced and/or stimulated; also recorded: induced expression of the reporter gene
Fold Induction (BMP-4 promoter 1 region; construct pSLA4.IN+16): 3.8 ± 0.6 fold
Fold Induction (BMP-4 promoter 1 region; construct pSLA4.IN+33): 3.1 ± 0.3 fold
Fold Induction (BMP-4 promoter 1 region; construct pSLA4.IN-42): 1.1 ± 0.2 fold
Fold Induction (BMP-4 promoter 1 region; construct pSLA4.INX): 3.4 ± 0.5 fold
Fold Induction (BMP-4 promoter 1 region; construct pSLA4.1EX (-1166/+173)): 3.7 ± 0.7 fold
Fold Induction (BMP-4 promoter 1 region; construct pSLA4.1PX (-697/+173)): 3.3 ± 0.5 fold
expression of the reporter gene under the control of a promoter comprising an estrogen responsive element (ERE) (in words) [1]: neither of these compounds were able to induce expression of the reporter gene
Fold Induction ([1]; construct pERE3 TATA-Luc, ratio of luciferase activity in presence and absence of compound, U-2 OS, human ER): 0.7 ± 0.3 fold
ER-mediated effect on BMP-4 promoter 2 region reporter (in words) (BMP-4 promoter 2 region): also apparent
Fold Induction ([2]; construct pSLA4 (no BMP-4 promoter region), ratio of luciferase activity in presence and absence of compound, U-2 OS, human ER): 1.1 ± 0.2 fold
